# Source: patent US7049133B2, “Regulation of gene expression through manipulation of mRNA splicing and its uses” (Yissum Research Development Company of the Hebrew …, priority 1998, dated 2006)
# Like-named read-outs stand apart in the source and are kept apart here.
# T1: PKR (Oryctolagus cuniculus, UniProt A0A0U2KCE0)
# T1 construct: phosphorylation of the PKR (68 kDa) and eIF2α (38 kDa) bands in the ribosome fraction of rabbit reticulocyte lysate; from tissue; host or cells: ribosome fraction of rabbit reticulocyte lysate
# T1 sequence (A0A0U2KCE0 1-547): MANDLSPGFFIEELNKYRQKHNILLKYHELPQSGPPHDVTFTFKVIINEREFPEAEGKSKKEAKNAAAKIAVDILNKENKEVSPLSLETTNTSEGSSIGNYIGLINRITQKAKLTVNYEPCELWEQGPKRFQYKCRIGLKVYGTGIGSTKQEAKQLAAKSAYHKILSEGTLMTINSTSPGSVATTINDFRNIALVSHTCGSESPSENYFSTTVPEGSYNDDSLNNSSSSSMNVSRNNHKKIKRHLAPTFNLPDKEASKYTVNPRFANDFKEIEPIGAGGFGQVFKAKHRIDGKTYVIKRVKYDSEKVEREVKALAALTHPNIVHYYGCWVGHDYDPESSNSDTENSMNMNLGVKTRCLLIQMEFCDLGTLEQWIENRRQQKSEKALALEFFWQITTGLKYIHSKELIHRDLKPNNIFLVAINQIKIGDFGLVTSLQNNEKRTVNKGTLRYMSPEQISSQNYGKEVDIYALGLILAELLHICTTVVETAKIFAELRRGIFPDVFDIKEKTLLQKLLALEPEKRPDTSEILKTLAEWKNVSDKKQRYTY
# Legend:
# BHK-21 cells = assay type: cell-based, baby hamster
# Description: (§1) BHK-21 cells were grown in DMEM medium supplemented with 2 mM glutamine, 40 mM NaHCO3, 10 mM Hepes, pH 7.3, […] of penicillin and streptomycin, […] nystatin and 10% fetal calf serum. 2-AP (Sigma) was added at 10 mM unless otherwise indicated. To prepare a stock solution of 0.15 M, 2-AP was dissolved in phosphate-buffered saline by heating at 70° C. for 10 min.
# (§2) In the experiments of FIGS. 2 and 3, monolayers of BHK-21 cells were seeded at a density of 1−2×10^6 cells/8-cm Petri dish and grown overnight; 4 h before cotransfection, culture medium was replaced. A mixture of […] of test DNA construct and 4 mg salmon sperm DNA carrier, and, when included, 2 mg pSV2CAT DNA [47], was permeated into cells by the calcium phosphate-DNA coprecipitation technique. After 12–18 h, culture medium was replaced with fresh medium prewarmed to 37° C. In the experiments of FIGS. 6 and 7, LipofectAmine (Life Technologies) was employed following instructions of the supplier, using 1 mg of each DNA for transfection.
# [1] = system: primary human lymphoid cells; settings: cited from earlier work
# [2] = system: splicing of TNF-β precursor transcripts; assay: RNase protection analysis of TNF-β precursor transcripts and spliced RNA in transfected BHK-21 cells; assay type: cell-based, hamster
# Description: as §1, §2
# (§3) For RNase protection analysis, DNA was subcloned in pBS (Stratagene) under the T3 or T7 promoter and transcribed using [a-^32P]UTP to generate labeled anti-sense RNA transcripts. A TNF-α RNA probe (map: FIG. 2A) was generated from a 821-bp EcoRI-Sau3AI fragment containing the 5′-flank, 151 -bp 5′-UTR, and first 6 codons. A second TNF-α RNA probe was generated from a 823-bp EcoRI-EcoRI 3′-UTR fragment from which a 5′-terminal fragment was removed by BstEII digestion, leaving 83 3′-terminal bp of the 3′-UTR and 250 bp beyond the 3′ cleavage site (map: FIG. 2A). A third TNF-α RNA probe (map: FIG. 2B) was generated from a 700-bp Sau3AI-Sau3AI fragment consisting of 10 bp of intron 2, exon 3, intron 3 and part of exon 4. A TNF-β probe was generated from a 637-bp Bsu36I-EcoRI DNA fragment, containing part of intron 3 and 571 bp of exon 4 (map: FIG. 3A). A second TNF-β RNA probe (map: FIG. 3B) was generated from a 324-bp EcoRI-Bsu36I DNA fragment, containing part of exon 1, exon 2, exon 3 and a portion of intron 3. A probe of 250-nt, generated from a HindIII-EcoRI fragment of the coding region of the CAT gene, was used to quantitate CAT mRNA. Intactness of RNA probes was assessed by polyacrylamide gel electrophoresis.
# (§4) Total RNA was isolated using guanidinium isothiocyanate/CsC1. RNase protection analysis with RNases A and T1 was performed using genomic TNF-α and TNF-β riboprobes and CAT or actin probes as described. Protected RNA fragments were separated by electrophoresis in 5% polyacrylamide/8 M urea gels. Size markers in FIG. 3 were generated by MspI digestion of pGEM-3 DNA and filling in with [a-^32P]dCTP [12]. Size marker in FIG. 7 is a 100-bp DNA ladder (Fermentas) that was dephosphorylated and 5′ end-labeled with [γ-^32P]ATP.
# PKR = biological target: T1, PKR; assay: Phosphorylation of PKR and eIF2α in ribosome fraction from rabbit reticulocyte lysate; assay type: biochemical
# Text: A 823-bp EcoRI-EcoRI TNF-α gene fragment comprised of 573 3′-terminal bp of the 3′-UTR, the polyadenylation site and downstream sequences from pTNF-α was inserted into pBS under the T7 promoter. To obtain 3′-UTR sense transcripts, the DNA was digested with PstI (EP), NcoI (EN), AflIII (EA), SspI (ES) or XmnI (EX) and then transcribed in vitro. A 616-bp NcoI-EcoRI TNF-α gene fragment comprised of 366 3′-terminal bp of the 3′-UTR, the polyadenylation site and downstream sequences from pTNF-α was inserted into pBS under the T7 promoter. To obtain 3′-UTR sense transcripts, the DNA was digested with AflIII (NA) or XmnI (NX) and then transcribed in vitro. A 572-bp EcoRI-PstI TNF-β gene fragment comprised of 389 3′-terminal bp of the 3′-UTR, the polyadenylation site and downstream sequences from pTNF-β was inserted into pBS under the T7 promoter. To obtain 3′-UTR sense transcript, the DNA was digested with PstI and then transcribed in vitro. EP RNA transcript was purified by agarose gel electrophoresis, followed by chromatography on CF-11 cellulose, washing with ethanol and eluting with water as described. Phosphorylation of PKR and eIF2α chain was assayed by incubating polyI:polyC or 3′-UTR transcript with the ribosome fraction from rabbit reticulocyte lysate in the presence of [γ-^32P]ATP for 20 min at 30° C. as described and subjecting the reaction mixture to electrophoresis in 10% polyacryamide gels containing sodium dodecyl sulfate.
# [3] = system: splicing of TNF-α precursor transcripts; assay: RNase protection analysis of TNF-α precursor transcripts and spliced mRNA in transfected BHK-21 cells; assay type: cell-based, hamster
# Description: as §1, §2, §3, §4
# CAT mRNA = assay: RNase protection analysis of CAT mRNA in transfected BHK-21 cells; assay type: cell-based
# Description: as §1, §2
# as §3, with “A second TNF-β RNA probe (map: FIG. 3B) was generated from a 324-bp EcoRI-Bsu36I DNA fragment, containing part of exon 1, exon 2, exon 3 and a portion of intron 3.” left out, “electrophoresis. […]” for “electrophoresis.”
# [4] = pTNF-β(3′UTR-α), 2-AP in presence of CHX
# [5] = pTNF-β(3′UTR-α), intron 3/exon 4 probe, 2-AP from 16 h
# [6] = pTNF-α(3′UTR-β), 2-AP from 16 h
# [7] = pTNF-α, 2-AP 10 mM from 18 h after transfection
molecule,measurement,setting,value
"Nc1ncc2[nH]cnc2n1 [2-AP, 2-Aminopurine]",Cell viability,"BHK-21 cells; FIG. 2 experiments, 2-AP up to 10 mM",remained constant
same,Cell viability,"BHK-21 cells; FIG. 3 experiments, 2-AP and CHX present",remained constant
same,TNF-β precursor transcripts and spliced mRNA,"[1]; lymphoid cells, increasing doses",coordinate decline
same,Expression of TNF-α mRNA,[1]; primary human lymphoid cells,blocks expression
same,"Sensitivity of splicing of TNF-β precursor transcripts carrying an inverted TNF-α3′-UTR sequence, compared with TNF-β(3′UTR-α) transcripts",[2],as sensitive
same,Generation of spliced RNA,[2]; [4],inhibited
same,Precursor transcripts,[2]; [4],increased
same,Precursor transcripts,[2]; [5],strong increase
same,Spliced RNA,[2]; [5],concomitant decline
same,Spliced mRNA versus precursor transcripts,"[2]; pTNF-β(3′UTR-αEP), 2-AP added at 20 h",pronounced shift from spliced mRNA to precursor transcripts
same,Expression of spliced TNF-β RNA,[2]; pTNF-β(Δ3′UTR),insensitive
same,Spliced RNA (214-nt band) and precursor transcripts,"[2]; pTNF-β, exon 1-3/intron 3 probe, 2-AP from 12 h",decrease
same,TNF-β precursor transcripts (637 nt) and mRNA (571 nt),"[2]; pTNF-β, intron 3/exon 4 probe, 2-AP from 12 h",precursors and mRNA both declined
same,"Sensitivity of PKR activation by 3′UTR-αEP RNA to 2-AP, compared with activation by dsRNA",PKR; 1 mM 2-AP,less sensitive
same,Phosphorylation of PKR and eIF2α driven by purified 3′UTR-αEP RNA,PKR; 1 and 5 mM of 2-AP,inhibited progressively
same,mRNA,"[3]; pTNF-α(3′UTR-αEP), 2-AP added at 20 h",decline
same,Rise in precursor transcripts,"[3]; pTNF-α(3′UTR-αEP), 2-AP added at 20 h, at 53 h",up to 36 fold
same,Expression of spliced mRNA (341-nt band),[3]; [6],failed to decline
same,Precursor transcripts (700 nt),[3]; [6],nor did precursor transcripts (700 nt) increase
same,Accumulation of precursor transcripts,"[3]; pTNF-α(Δ3′UTR), 2-AP 10 mM",nor was there any enhanced accumulation
same,Expression of mRNA,"[3]; pTNF-α(Δ3′UTR), 2-AP 10 mM",no longer inhibited
same,Expression of TNF-α RNA transcripts,"[3]; pTNF-α, 2-AP 2 mM from time of transfection",reduction
same,Expression of TNF-α RNA transcripts,"[3]; pTNF-α, 2-AP 6 mM from time of transfection",full inhibition
same,Expression of spliced TNF-α mRNA (341-nt band),[3]; [7],strongly inhibited
same,TNF-α precursor transcripts (700-nt band),[3]; [7],enhanced accumulation
same,Expression of CAT mRNA carrying TNF-α3′-UTR portion,CAT mRNA; p5′CAT(3′UTR-α),unaffected
same,Expression of CAT mRNA,"CAT mRNA; p5′CAT, 10 mM 2-AP",proceeded unabated
same,Expression of a cotransfected CAT gene,"CAT mRNA; pSV2CAT cotransfected with pTNF-α, 2-AP 10 mM",not affected
C[C@@H]1C[C@@H]([C@H](O)CC2CC(=O)NC(=O)C2)C(=O)[C@@H](C)C1 [CHX],Expression of both precursor transcripts and spliced RNA,"[2]; pTNF-β(3′UTR-α), CHX from 16 h",enhanced expression
"3′UTR-αEP RNA: T7 RNA transcript of the 104-bp EcoRI-PstI fragment of the human TNF-α3′-UTR (2-APRE, SEQ ID NO:1) (nucleic acid, listed as Homo sapiens, RNA, all phosphodiester, T or U not given here) GAATTCAAACTGGGGCCTCCAGAACTCACTGGGGCCTACAGCTTTGATCCCTGACATCTGGAATCTGGAGACCAGGGAGCCTTTGGTTCTGGCCAGAATGCTGC","Induced phosphorylation of PKR and eIF2α, dependence on RNA concentration",PKR,at low but not high RNA concentrations
same,"Activation of PKR, judged by phosphorylation of PKR (68 kDa) and eIF2α (38 kDa) bands","PKR; RNA 0.05 ng/ml, compared with dsRNA",activated PKR even more strongly than dsRNA
same,Molar specific activity as inducer of PKR phosphorylation,PKR; each TNF RNA at 0.05 ng/ml,highest molar specific activity
